Laboratory results taken from the supplement of paper PMC4862054.

Tests used:
Conditions in all cases: incubation time: 72 h
[1] = test system: CAL-120; assay: normalised response (% of control), CellTox Green; higher = less cell death (100 = DMSO, 0 = benzethonium chloride kill control)
In short: (§1)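 Each entry is the normalised signal at a single concentration within a series. The series comprised 5 concentrations in 10-fold steps over a compound-specific 10,000-fold range, placed in 384-well plates into which breast cancer cell lines were seeded as 20 µl suspension and incubated 72 h. CellTox Green (485/520 nm) fluorescence and then CellTiter-Glo luminescence were read, with signals normalised per plate to 0.1 % DMSO (100) and a positive kill control (0).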

[2] = test system: HCC1143; assay: as above
In short: as §1

[3] = test system: MDA-MB-453; assay: as above
In short: as §1

[4] = test system: CAL-85-1; assay: as above
In short: as §1

[5] = test system: DU-4475; assay: as above
In short: as §1

[6] = test system: MFM-223; assay: as above
In short: as §1

[7] = test system: HDQ-P1; assay: as above
In short: as §1

[8] = test system: MCF-10A; assay: as above
In short: as §1

[9] = test system: HCC1599; assay: as above
In short: as §1

[10] = test system: CAL-148; assay: as above
In short: as §1

[11] = test system: HCC1937; assay: as above
In short: as §1

[12] = test system: MDA-MB-436; assay: as above
In short: as §1

[13] = test system: BT-474; assay: as above
In short: as §1

[14] = test system: Hs578T; assay: as above
In short: as §1

[15] = test system: BT-549; assay: as above
In short: as §1

[16] = test system: MDA-MB-231; assay: as above
In short: as §1

[17] = test system: CAL-51; assay: as above
In short: as §1

[18] = test system: MDA-MB-468; assay: as above
In short: as §1

[19] = test system: CAL-120; assay: normalised response (% of control), CellTiter-Glo; higher = more viable cells (100 = DMSO, 0 = benzethonium chloride kill control)
In short: as §1

[20] = test system: HCC1143; assay: as above
In short: as §1

[21] = test system: MDA-MB-453; assay: as above
In short: as §1

[22] = test system: CAL-85-1; assay: as above
In short: as §1

[23] = test system: DU-4475; assay: as above
In short: as §1

[24] = test system: MFM-223; assay: as above
In short: as §1

[25] = test system: HDQ-P1; assay: as above
In short: as §1

[26] = test system: MCF-10A; assay: as above
In short: as §1

[27] = test system: HCC1599; assay: as above
In short: as §1

[28] = test system: CAL-148; assay: as above
In short: as §1

[29] = test system: HCC1937; assay: as above
In short: as §1

[30] = test system: MDA-MB-436; assay: as above
In short: as §1

[31] = test system: BT-474; assay: as above
In short: as §1

[32] = test system: SK-BR-3; assay: as above
In short: as §1

[33] = test system: Hs578T; assay: as above
In short: as §1

[34] = test system: BT-549; assay: as above
In short: as §1

[35] = test system: MDA-MB-231; assay: as above
In short: as §1

[36] = test system: CAL-51; assay: as above
In short: as §1

[37] = test system: MDA-MB-468; assay: as above
In short: as §1

`COc1cc([C@@H]2c3cc4c(cc3[C@@H](O[C@@H]3O[C@@H]5CO[C@@H](c6cccs6)O[C@H]5[C@H](O)[C@H]3O)[C@H]3COC(=O)[C@H]23)OCO4)cc(OC)c1O` [Teniposide] (1000 nM) was tested, and the normalised response [1] was 88.1%, the normalised response [2] was -28.9% and the normalised response [3] was 111%. The normalised response [4] was 91%, the normalised response [5] was 75% and the normalised response [6] was 69.6%. It also gave a normalised response [7] of 102%, a normalised response [8] of 75.1% and a normalised response [9] of 75.5%. It also gave a normalised response [10] of 21.2%, a normalised response [11] of 92.2% and a normalised response [12] of 90.5%. For the same molecule, the normalised response [13] was 99.1%, the normalised response [14] was 98.2% and the normalised response [15] was 78.4%. The normalised response [16] was 61.2%, the normalised response [17] was 51.4% and the normalised response [18] was 94.5%. It also gave a normalised response [19] of 72.4%, a normalised response [20] of 47.8% and a normalised response [21] of 160%. The normalised response [22] was 55.3%, the normalised response [23] was 17.3% and the normalised response [24] was 82.4%. It also gave a normalised response [25] of 84.1%, a normalised response [26] of 82.8% and a normalised response [27] of 19.6%. It also gave a normalised response [28] of 33.3%, a normalised response [29] of 72.4% and a normalised response [30] of 36.6%. It also gave a normalised response [31] of 47.6%, a normalised response [32] of 19.1% and a normalised response [33] of 76.3%. For the same molecule, the normalised response [34] was 36.5%, the normalised response [35] was 66% and the normalised response [36] was 47.8%. For the same molecule, the normalised response [37] was 41.9%.

`O=C(/C=C/c1cccnc1)NCCCCC1CCN(C(=O)c2ccccc2)CC1` [Daporinad] (100 nM) was tested, and the normalised response [1] was 91.2%, the normalised response [2] was 104% and the normalised response [3] was 104%. For the same molecule, the normalised response [4] was 101%, the normalised response [5] was 98.8% and the normalised response [6] was 70.9%. It also gave a normalised response [7] of 103%, a normalised response [8] of 98.1% and a normalised response [9] of 78.1%. The normalised response [10] was 95%, the normalised response [11] was 27.6% and the normalised response [12] was 103%. The normalised response [13] was 98.6%, the normalised response [14] was 20% and the normalised response [15] was 105%. For the same molecule, the normalised response [16] was 112%, the normalised response [17] was 105% and the normalised response [18] was 125%. For the same molecule, the normalised response [19] was 17%, the normalised response [20] was 14.3% and the normalised response [21] was 14.3%. For the same molecule, the normalised response [22] was 16%, the normalised response [23] was 4.65% and the normalised response [24] was 4.38%. The normalised response [25] was 19.1%, the normalised response [26] was 11.1% and the normalised response [27] was 0.54%. For the same molecule, the normalised response [28] was 69%, the normalised response [29] was 21.3% and the normalised response [30] was 54%. It also gave a normalised response [31] of 28.7%, a normalised response [32] of 107% and a normalised response [33] of 8.08%. It also gave a normalised response [34] of 100%, a normalised response [35] of 25.8% and a normalised response [36] of 102%. The normalised response [37] was 0.85%.

`CC(=O)Nc1cccc(-n2c(=O)n(C3CC3)c(=O)c3c(Nc4ccc(I)cc4F)n(C)c(=O)c(C)c32)c1` [Trametinib] (25 nM) gave a normalised response [1] of 87.6%, a normalised response [2] of 116% and a normalised response [3] of 111%. It also gave a normalised response [4] of 66.6%, a normalised response [5] of 64.6% and a normalised response [6] of 101%. It also gave a normalised response [7] of 92.3%, a normalised response [8] of 81.3% and a normalised response [9] of 105%. The normalised response [10] was 108%, the normalised response [11] was 124% and the normalised response [12] was 97.2%. For the same molecule, the normalised response [13] was 102%, the normalised response [14] was 113% and the normalised response [15] was 93.6%. The normalised response [16] was 66.4%, the normalised response [17] was 113% and the normalised response [18] was 103%. The normalised response [19] was 71.7%, the normalised response [20] was 72.5% and the normalised response [21] was 111%. For the same molecule, the normalised response [22] was 68.9%, the normalised response [23] was 0.42% and the normalised response [24] was 94.6%. For the same molecule, the normalised response [25] was 61.2%, the normalised response [26] was 35.7% and the normalised response [27] was 101%. For the same molecule, the normalised response [28] was 90.7%, the normalised response [29] was 81.3% and the normalised response [30] was 91.2%. For the same molecule, the normalised response [31] was 73.5%, the normalised response [32] was 102% and the normalised response [33] was 83.2%. It also gave a normalised response [34] of 107%, a normalised response [35] of 72.1% and a normalised response [36] of 105%. For the same molecule, the normalised response [37] was 88.7%.

With `CCCS(=O)(=O)Nc1ccc(F)c(C(=O)c2c[nH]c3ncc(-c4ccc(Cl)cc4)cc23)c1F` [Vemurafenib] (1000 nM) the normalised response [1] was 99.7%, the normalised response [2] was 91.8% and the normalised response [3] was 104%. For the same molecule, the normalised response [4] was 100%, the normalised response [5] was 78.9% and the normalised response [6] was 98%. The normalised response [7] was 73.9%, the normalised response [8] was 88.2% and the normalised response [9] was 90.8%. The normalised response [10] was 101%, the normalised response [11] was 108% and the normalised response [12] was 65.4%. For the same molecule, the normalised response [13] was 98%, the normalised response [14] was 100% and the normalised response [15] was 116%. It also gave a normalised response [16] of 97%, a normalised response [17] of 82.6% and a normalised response [18] of 127%. It also gave a normalised response [19] of 90%, a normalised response [20] of 95.6% and a normalised response [21] of 90.7%. The normalised response [22] was 92.3%, the normalised response [23] was 35% and the normalised response [24] was 86.4%. For the same molecule, the normalised response [25] was 94.8%, the normalised response [26] was 101% and the normalised response [27] was 104%. The normalised response [28] was 86.4%, the normalised response [29] was 97.3% and the normalised response [30] was 94.2%. It also gave a normalised response [31] of 90.8%, a normalised response [32] of 79% and a normalised response [33] of 103%. It also gave a normalised response [34] of 93.1%, a normalised response [35] of 94.3% and a normalised response [36] of 88.6%. For the same molecule, the normalised response [37] was 86.9%.
